Assay results taken from US20250296961A1, “ANTIMICROBIAL PEPTIDES FOR REMINERALIZATION OF TEETH AND PREVENTION OF DENTAL CARIES” (The University of Hong Kong, priority 2021, published 2025).
Non-standard residues stand in square brackets, D forms with d. No end group written: not given here. pS = N[C@@H](COP(=O)(O)O)C(=O)O

How the values were obtained:
Assay in all cases: Anti-planktonic bacterial ability, MBC (Example 2)
S. gordonii = assay type: cell-based, S. gordonii (ATCC 35105)
Procedure: (§1) S. mutans (ATCC 35668, ATCC, Manassas, USA), S. gordonii (ATCC 35105, ATCC, Manassas, USA), and S. sanguinis (ATCC 10556, ATCC, Manassas, USA) strains were cultured in brain-heart infusion broth (BHI, Difco Laboratories, Detroit, USA) at 37° C. under anaerobic conditions (85% N2, 10% H2, and 5% CO2). Bacteria were harvested by centrifugation (5000 rpm, 10 min), washed once with sodium phosphate-buffered saline (PBS, 10 mM, pH=7.2), and resuspended in BHI at a concentration of 1×10^6 CFU mL^−1.
(§2) Each well was seeded with 10 μL S. mutans suspension, S. gordonii suspension, and S. sanguinis suspension, respectively. […] The bacterial growth was assessed by measuring the absorbance at 595 nm using a microplate reader after a 24-hour incubation. Subsequently, 10 μL of bacterial suspension from each well were plated on horse blood agar plates and incubated at 37° C. for 48 h. The antibacterial activities of AMPs were evaluated.

S. mutans = assay type: cell-based, S. mutans (ATCC 35668)
Procedure: as §1, §2

S. sanguinis = assay type: cell-based, S. sanguinis (ATCC 10556)
Procedure: as §1, §2

| Substance | MBC, S. gordonii (S. gordonii) | MBC, S. mutans (S. mutans) | MBC, S. sanguinis (S. sanguinis) |
| --- | --- | --- | --- |
| AKRHHGYKRKFHDSSDSSDSSDSSDSSDSSDSSDSS [Peptide P-113-8DSS] | >64 μM mL^−1 | >64 μM mL^−1 | >64 μM mL^−1 |
| DSSDSSDSSDSSDSSDSSDSSDSSAKRHHGYKRKFH [Peptide 8DSS-P-113] | 64 μM mL^−1 | >64 μM mL^−1 | 64 μM mL^−1 |
| SpSpAKRHHGYKRKFH ([pS][pS]AKRHHGYKRKFH) [DPS-P-113] | >64 μM mL^−1 | 64 μM mL^−1 | >64 μM mL^−1 |
| TFFRLFNRAKRHHGYKRKFHDSSDSSDSSDSSDSSDSSDSSDSS (not fully specified) [C8-P-113-8DSS] | >64 μM mL^−1 | 64 μM mL^−1 | >64 μM mL^−1 |
